How the values were obtained:
[1] = Ability to inhibit proliferation in human lymphocytes by mixed lymphocyte reaction (MLR); type: functional, cell-based
[2] = biological target: Dihydroorotate dehydrogenase (quinone), mitochondrial (Homo sapiens, UniProt Q02127)
Chain of Dihydroorotate dehydrogenase (quinone), mitochondrial (Q02127 whole entry): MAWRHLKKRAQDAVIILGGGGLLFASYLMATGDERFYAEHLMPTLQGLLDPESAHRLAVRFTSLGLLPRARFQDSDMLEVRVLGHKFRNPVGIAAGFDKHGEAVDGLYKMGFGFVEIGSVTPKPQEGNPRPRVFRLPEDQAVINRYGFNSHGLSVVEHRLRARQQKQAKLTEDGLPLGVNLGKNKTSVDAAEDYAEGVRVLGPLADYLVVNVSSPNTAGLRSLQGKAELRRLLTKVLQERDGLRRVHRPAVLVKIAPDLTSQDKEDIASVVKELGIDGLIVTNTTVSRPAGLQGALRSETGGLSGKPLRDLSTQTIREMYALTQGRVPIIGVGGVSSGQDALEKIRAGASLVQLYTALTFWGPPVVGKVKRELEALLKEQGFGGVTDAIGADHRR
Description: Inhibition measurement of orotate formation from radiolabeled dihydroorotate, using partially purified DHODase isolated from human liver.

| Ki [2] [µM] | SMILES | IC50 ([1]; Homo sapiens) [µM] | IC50 [1] [µM] |
| --- | --- | --- | --- |
| > 0.5 | Cc1c(-c2ccc(-c3ccccc3)cc2)nc2ccc(F)cc2c1C(N)=O | > 0.5 | – |
| > 0.5 | Cc1c(-c2cccc3ccccc23)nc2ccc(F)cc2c1C(=O)O | > 0.5 | – |
| 0.42 | Cc1c(-c2ccc(-c3ccccc3F)cc2)nc2ccncc2c1C(=O)O | > 0.5 | – |
| 0.013 | COc1c(-c2ccc(-c3ccccc3)cc2)nc2ccc(F)cc2c1C(=O)O | 0.25 | – |
| > 0.5 | Cc1c(-c2cccc(-c3ccccc3)c2)nc2ccc(F)cc2c1C(=O)O | > 0.5 | – |
| > 0.5 | Cn1cnc2c(C(=O)O)cc(-c3ccc(-c4ccccc4)cc3)nc21 | > 0.5 | – |
| > 0.5 | Cc1c(-c2ccc(-c3ccccc3)cc2)nc2ccc(F)cc2c1-n1cnnn1 | > 0.5 | – |
| 0.02 | Cc1c(-c2ccc(-c3ccccc3)cc2)nc2ccc(Cl)cc2c1C(=O)O | 0.035 | – |
| > 0.5 | CC(=O)Nc1ccc2nc(-c3ccc(-c4ccccc4)cc3)c(C)c(C(=O)O)c2c1 | > 0.5 | – |
| 0.27 | CSc1ccc2nc(-c3ccc(-c4ccccc4)cc3)c(C)c(C(=O)O)c2c1 | > 0.5 | – |
| 0.03 | CCc1c(-c2ccc(-c3ccccc3)cc2)nc2ccc(F)cc2c1C(=O)O | 0.21 | – |
| 0.05 | Cc1c(-c2ccc(-c3cccc(F)c3)cc2)nc2ccc(F)cc2c1C(=O)O | 0.02 | – |
| > 0.5 | Cc1c(-c2ccc(-n3ccnc3)cc2)nc2ccc(F)cc2c1C(=O)O | > 0.5 | – |
| 0.0084 | Cc1c(-c2ccc(-c3ccccc3)cc2)nc2ccc(C(F)(F)F)cc2c1C(=O)O | 0.007 | – |
| 0.14 | Cc1c(-c2ccc(-c3ccc(Cl)cc3)cc2)nc2ccc(F)cc2c1C(=O)O | > 0.5 | – |
| 0.024 | Cc1ccc(-c2ccc(-c3nc4ccc(F)cc4c(C(=O)O)c3C)cc2)cc1 | 0.15 | – |
| > 0.5 | Cc1c(-c2ccc(-c3ccccc3)cc2)nc2ccc(O)cc2c1C(=O)O | > 0.5 | – |
| 0.21 | Cc1c(-c2ccc(-c3ccc(F)cc3)cc2)nc2ccc(F)cc2c1C(=O)O | 0.26 | – |
| 0.39 | Cc1c(-c2ccc(-c3ccccc3)s2)nc2ccc(F)cc2c1C(=O)O | > 0.5 | – |
| > 0.5 | Cc1c(-c2ccc(-c3ccccc3)cc2)nc2ccc(F)cc2c1CO | > 0.5 | – |
| 0.01 | Cc1ccc2nc(-c3ccc(-c4ccccc4)cc3)c(C)c(C(=O)O)c2c1 | 0.38 | – |

| Ki [2] [µM] | SMILES | IC50 ([1]; Homo sapiens) [µM] | IC50 [1] [µM] |
| --- | --- | --- | --- |
| > 0.5 | O=C(O)c1cc(-c2ccc(-c3ccccc3)cc2)nc2ocnc12 | > 0.5 | – |
| 0.23 | Cc1c(-c2ccc(-c3ccc(C(F)(F)F)cc3)cc2)nc2ccc(F)cc2c1C(=O)O | > 0.5 | – |
| > 0.5 | COC(=O)c1ccc2nc(-c3ccc(-c4ccccc4)cc3)c(C)c(C(=O)O)c2c1 | > 0.5 | – |
| > 0.5 | Cc1c(-c2ccc(-c3ccccc3)cc2)nc2ccc(F)cc2c1O | > 0.5 | – |
| 0.038 | Cc1c(-c2ccc(-c3ccc(Br)cc3)cc2)nc2ccc(F)cc2c1C(=O)O | > 0.5 | – |
| 0.3 | Cc1c(-c2ccc3ccccc3c2)nc2ccc(F)cc2c1C(=O)O | > 0.5 | – |
| 0.01 | O=C(O)c1cc(-c2ccc(-c3ccccc3)cc2)nc2ccc(F)cc12 | 0.15 | – |
| > 0.5 | Cc1c(-c2ccc(-c3ccccc3F)cc2)nc2nc[nH]c2c1C(=O)O | > 0.5 | – |
| 0.4 | COC(=O)c1c(C)c(-c2ccc(-c3ccccc3)cc2)nc2ccc(F)cc12 | > 0.5 | – |
| – | O=C(O)c1c(O)c(-c2ccc(-c3ccccc3)cc2)nc2ccc(F)cc12 | > 0.5 | – |
| 0.15 | Cc1c(-c2ccc(-c3ccccc3)cc2)nc2c(Cl)cccc2c1C(=O)O | > 0.5 | – |
| 0.21 | O=C(O)c1cc(-c2ccc(-c3ccccc3)cc2)nc2sccc12 | > 0.5 | – |
| – | Cc1c(-c2ccc(-c3ccccc3)cc2)nc2ccccc2c1C(=O)O | – | 0.18 |
| – | Cc1c(-c2ccc(-c3ccccc3F)cc2)nc2ccc(F)cc2c1C(=O)O [BREQUINAR] | – | 0.015 |
| 0.22 | Cc1c(-c2ccc(-c3ccccc3)cc2)nc2cc(Cl)ccc2c1C(=O)O | > 0.5 | – |
| > 0.5 | Cc1c(-c2ccccc2)nc2ccc(F)cc2c1C(=O)O | > 0.5 | – |
| > 0.5 | CC(=O)OCc1c(C)c(-c2ccc(-c3ccccc3)cc2)nc2ccc(F)cc12 | > 0.5 | – |
| > 0.5 | Cc1c(CCCCc2ccccc2)nc2ccc(F)cc2c1C(=O)O | > 0.5 | – |
| 0.025 | Cc1c(-c2ccc(-c3ccccc3)cc2)nc2cccc(Cl)c2c1C(=O)O | 0.15 | – |
| 0.011 | Cc1c(-c2ccc(-c3ccc(O)cc3F)cc2)nc2ccc(F)cc2c1C(=O)O | 0.3 | – |
| 0.013 | CSc1c(-c2ccc(-c3ccccc3)cc2)nc2ccc(F)cc2c1C(=O)O | 0.018 | – |

| SMILES | Ki [2] [µM] | IC50 ([1]; Homo sapiens) [µM] | IC50 [1] [µM] |
| --- | --- | --- | --- |
| Cc1c(-c2ccc(C(C)(C)C)cc2)nc2ccc(F)cc2c1C(=O)O | 0.04 | 0.4 | – |
| CCCCCCc1ccc(-c2nc3ccc(F)cc3c(C(=O)O)c2C)cc1 | 0.06 | > 0.5 | – |
| O=C(O)c1c2c(nc3ccc(F)cc13)-c1ccc(-c3ccccc3)cc1CC2 | 0.017 | 0.014 | – |
| Cc1c(-c2ccc(-c3ccccc3F)cc2)nc2cnccc2c1C(=O)O | 0.048 | 0.29 | – |
| Cc1c(-c2ccc(Oc3ccccc3)cc2)nc2ccc(F)cc2c1C(=O)O | 0.029 | 0.5 | – |
| Cc1c(-c2ccc(-c3cccs3)cc2)nc2ccc(F)cc2c1C(=O)O | 0.056 | 0.35 | – |
| Cc1c(-c2ccc(C3CCCCC3)cc2)nc2ccc(F)cc2c1C(=O)O | 0.028 | 0.025 | – |
| Cc1c(-c2cccc(Oc3ccccc3)c2)nc2ccc(F)cc2c1C(=O)O | 0.063 | > 0.5 | – |
| Cc1c(-c2ccc(-c3ccccc3F)cc2)nc2cccnc2c1C(=O)O | 0.5 | > 0.5 | – |
| Cc1c(-c2ccc(-c3ccccc3F)cc2)nc2ncccc2c1C(=O)O | 0.21 | > 0.5 | – |
| Cc1c(-c2ccc(-c3cccnc3)cc2)nc2ccc(F)cc2c1C(=O)O | 0.2 | > 0.5 | – |
